According to patent US20070104714A1, “Composition and method for the treatment of cancer and other physiologic conditins based on modulation of the ppar-gamma pathway and her-kinase axis” (CEDARS-SINAI MEDICAL CENTER, priority 2003, published 2007):

Assays:
[1] = Toxicity and weight loss in xenograft-bearing treated animals; format: in vivo, nude mice; conditions: for Lethal toxicity or significant weight loss: combination study, CWRSA6, R-etodolac 200 mg/kg daily, 2C4 20 mg/kg 2X/wk, three weeks
PPARγ1 = test: PPARγ protein (Western blot) and mRNA (RT-PCR) in treated prostate cancer xenografts; format: in vivo, nude mice; conditions: for PPARγ protein by immunoblot in xenograft lysates of combination study: 22 days of treatment
Experimental: Total RNA was extracted from prostate tumors or the LNCaP cell line using the TRIZOL reagent (obtained from Invitrogen Corp.; San Diego, Calif.). Samples were heated at 95° C. for 3 minutes and snap-cooled before proceeding with DNase I treatment to prevent RNA/DNA hybridization. DNase I (obtained from Ambion; Austin, Tex.) was used to remove any genomic DNA that might interfere with the reaction. Samples were treated with DNase I for 1 hour at 37° C. The RNA yield was quantified spectrometrically.
Total RNA was reverse-transcribed (RT) into cDNA and polymerase chain reaction (PCR) was performed in the same reaction using a real-time TAQman One-Step RT-PCR Master Mix Reagents Kit (obtained from Applied Biosystems; Foster City, Calif.). The sequences of the primer/probe sets used for this analysis are as follows. F and R are the forward and reverse primers, respectively, and P is the fluorescent-labeled probe.
The real-time one step RT-PCR cycling conditions for all primer sets were as follows: 30 min at 48° C. for RT step; 10 min at 95° C. for […] Gold Activation; and 40 cycles for cDNA denaturing (95° C., 15 s), and annealing/elongation (60° C. for 1 min) steps. PCR reactions for each template were done in triplicate using 1 μg of total RNA per sample. Each gene-specific primer pair was tested on standard 384-well plates. Standard curves were constructed using 10-1000 ng of total RNA prepared from the CWRSA6 tumor line.
The comparative CT method (Perkin Elmer Applied Biosystems; Foster City, Calif.) was used to determine relative quantification of gene expression for each gene compared with the β-actin control. First, the CT values from the β-actin reactions were averaged for each triplicate. Next, the CT values from the gene-of-interest reactions were averaged. The gene-of-interest average was […] the β-actin average to take into account the variability of total RNA.
(§1) Immunoblots were performed as described in Towbin H., “Electrophoretic Transfer of Proteins from Polyacrylamide Gels to Nitrocellulose Sheets: Procedure and Some Applications,” Proc. Natl. Acad. Sci. USA, Vol. 76, No. 9 p. 4350-4354 (1979) using aliquots of tumor lysates (100 μg per lane) or lysates from LNCaP cells (100 μg per lane). Protein concentration was determined with a Bradford Assay (obtained from Bio-Rad Inc.; Hercules, Calif.). The lysates were separated on 10% SDS polyacrylamide gels and transferred onto nitrocellulose filters. […]

cyclooxygenase (COX) = conditions: literature (Adachi et al.; Demerson et al.); cited from earlier work
[2] = tested on: CD36 expression in THP-1 cells; test: TPA-induced CD36 scavenger receptor expression in THP-1 cells by flow cytometry; format: cell-based, human; conditions: 200 μM, TPA 40 ng/ml
Experimental: Prostate carcinoma cell lines, 22Rv1 and LNCaP, and human acute monocytic leukemia (THP-1) cells were obtained from the American Type Culture Collection (Rockville, Md.) and maintained in RPMI 1640 medium supplemented with 10% FBS, 100 μg/ml penicillin and 100 μg/ml streptomycin (obtained from GIBCO; Grand Island, N.Y.). […] Second, the combination of PPARγ transactivation, together with protein kinase C activation by a phorbol ester, has been reported to induce the scavenger receptor CD36 in macrophages (Han and […], 2002). CD36 is documented as a PPARγ-regulated gene (Tontonoz et al., 1998). […] THP-1 cells were treated for 5 days with 200 μM etodolac (racemic mixture) and 20 μM troglitazone in the presence or absence of 40 ng/ml phorbol ester (TPA) for 48 hours. Cells were fixed and stained with unconjugated anti-CD36 and FITC conjugated anti-IgG and analyzed by flow cytometry. A population of 10,000 viable cells was analyzed for each treatment.

[3] = tested on: CWRSA6 human prostate cancer xenografts; conditions: 200 mg/kg o.g. daily; p=0.002
PPARγ = target: T1, PPARγ (Homo sapiens, UniProt P37231); test: PPARγ reporter (AOx)3-TK-Luc transient transfection luciferase assay in RAW 267.4 cells; format: cell-based; conditions: for PPRE-driven reporter gene expression / PPARγ transactivation: varying concentrations, with recombinant PPARγ
T1 construct: expressed in transfected cells; host or cells: RAW 267.4 mouse macrophages
T1 sequence (P37231 1-505): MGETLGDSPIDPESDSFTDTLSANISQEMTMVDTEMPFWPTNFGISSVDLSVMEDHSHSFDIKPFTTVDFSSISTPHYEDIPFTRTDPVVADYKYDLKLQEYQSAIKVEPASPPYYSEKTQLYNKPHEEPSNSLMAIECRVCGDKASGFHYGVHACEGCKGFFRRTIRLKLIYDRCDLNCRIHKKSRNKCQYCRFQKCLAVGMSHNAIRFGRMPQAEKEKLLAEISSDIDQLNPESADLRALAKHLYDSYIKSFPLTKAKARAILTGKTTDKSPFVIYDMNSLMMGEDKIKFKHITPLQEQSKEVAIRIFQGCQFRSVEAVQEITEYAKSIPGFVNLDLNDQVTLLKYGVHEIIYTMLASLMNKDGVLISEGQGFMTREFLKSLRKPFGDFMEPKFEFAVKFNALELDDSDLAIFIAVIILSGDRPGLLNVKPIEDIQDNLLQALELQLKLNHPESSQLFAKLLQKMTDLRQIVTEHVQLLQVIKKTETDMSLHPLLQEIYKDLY
Experimental: […] cells were maintained at 37° C. and 5% CO2 in Dulbecco's modified eagle medium (DMEM) with high glucose (obtained from GIBCO; Grand Island, N.Y.) supplemented with 10% fetal bovine serum (FBS), 100 μg/ml penicillin and 100 μg/ml streptomycin.
For transfection, cells were grown in DMEM with 10% FBS for at least 24 hours prior to transfection. Transient transfections were performed in 12-well plates for at least 24 hours prior to transfection. At approximately 50% confluence, cells were transfected using the FuGENE transfection reagent (obtained from Roche Diagnostics GmbH; Mannheim, Germany) according to the manufacturer's instruction with 0.5 μg of reporter plasmid (AOx)3-TK-Luc, 0.1 to 0.2 μg of control plasmid pCMXμgal, 0.1 μg PPARγ expression plasmid and carrier DNA for a total of 1 μg DNA per well. After 16 hours, the cells were washed and fresh medium containing the appropriate amount of drugs, prepared in 0.5% DMSO, was added to the cells for another 24 hours. The cells were treated with either vehicle alone (DMSO), indomethacin, rosiglitazone or varying concentrations of R- or S-etodolac.
For luciferase assays, cells were lysed in potassium phosphate buffer containing 1% TRITON X-100 (obtained from Rohm and Haas Co.; Philadelphia, Pa.) and light emission was detected in the presence of luciferin using a microtiter plate luminometer. Luciferase values were normalized for variations in transfection efficiency using a β-galactosidase internal control. The results are expressed as relative luciferase units (RLU). The luciferase activity values represent the mean of a minimum of three independent transfections performed in triplicate.
The 22Rv1 cells were seeded into 100 mm dishes and allowed to attach for a period of 18 hours. The media was then replaced with phenol red-free and serum-free RPMI 1640, with 100 μg/ml penicillin and 100 μg/ml streptomycin ±R-etodolac for the indicated times. MAP-kinase activation was assessed by Western blot analysis using methods described above. LNCaP cells were treated with R-etodolac at 200, 400, and 600 μM concentrations for 18 Hours. Total protein or RNA was isolated using methods as described previously. Cyclin D1 protein and mRNA expression were assessed by western blot and a real-time quantitative RT-PCR assay as previously described. This transactivation function is mediated only in the presence of recombinant PPARγ.

HER-kinase receptors = test: HER-kinase receptor mRNA expression in treated xenografts (RT-PCR); format: in vivo, nude mice; conditions: data not shown
Experimental: (§2) Total RNA was extracted from prostate tumors or the LNCaP cell line using the TRIZOL reagent (obtained from Invitrogen Corp.; San Diego, Calif.). Samples were heated at 95° C. for 3 minutes and snap-cooled before proceeding with DNase I treatment to prevent RNA/DNA hybridization. DNase I (obtained from Ambion; Austin, Tex.) was used to remove any genomic DNA that might interfere with the reaction. Samples were treated with DNase I for 1 hour at 37° C. The RNA yield was quantified spectrometrically. […]
(§3) The mRNA expression of cyclin D1 (Takayasu, H. et al., “Frequent deletions and mutations of the beta-catenin gene are associated with overexpression of cyclin D1 and fibronectin and poorly differentiated histology in childhood hepatoblastoma,” Clin. Cancer Res., Vol. 7, p. 901-908 (2001)) and the HER-kinase receptors were analyzed using primer sets as described in Agus, D. B. et al, “Targeting ligand activated ErbB2 signaling inhibits breast and prostate tumor growth,” Cancer Cell, Vol. 2, p. […]
(§4) The comparative CT method (Perkin Elmer Applied Biosystems; Foster City, Calif.) was used to determine relative quantification of gene expression for each gene compared with the β-actin control. […]

[4] = tested on: LuCaP-35 human prostate cancer xenografts; test: Tumor growth of androgen-dependent LuCaP-35 prostate cancer xenografts in nude mice; format: in vivo; conditions: 200 mg/kg o.g. daily; p=0.0103
[5] = tested on: cyclin D1 expression in LNCaP cells; test: Cyclin D1 mRNA (RT-PCR) and protein (Western blot) expression in LNCaP cells; format: cell-based, human
Experimental: as §2, §3, §4
The 22Rv1 cells were seeded into 100 mm dishes and allowed to attach for a period of 18 hours. […] MAP-kinase activation was assessed by Western blot analysis using methods described above. […]

[6] = tested on: phospho-MAP kinase in 22Rv1 cells; test: Phospho-MAP kinase activation Western blot in 22Rv1 prostate cancer cells; format: cell-based, human; conditions: 500 μM, within 20 minutes of addition, then sustained
Experimental: as §1
The 22Rv1 cells were seeded into 100 mm dishes and allowed to attach for a period of 18 hours. […] MAP-kinase activation was assessed by Western blot analysis using methods described above. […] Cyclin D1 protein and mRNA expression were assessed by western blot and a real-time quantitative RT-PCR assay as previously described. […]

[7] = tested on: phospho-p44/42 MAP kinase; test: Phospho-MAP kinase (p44/42) Western blot in CWRSA6 xenografts, time course; format: in vivo, nude mice
Experimental: Immunoblots were performed as described in Towbin H., “Electrophoretic Transfer of Proteins from Polyacrylamide Gels to Nitrocellulose Sheets: Procedure and Some Applications,” Proc. Natl. Acad. Sci. USA, Vol. 76, No. 9 p. 4350-4354 (1979) using aliquots of tumor lysates (100 μg per lane) or lysates from LNCaP cells (100 μg per lane). Protein concentration was determined with a Bradford Assay (obtained from Bio-Rad Inc.; Hercules, Calif.). The lysates were separated on 10% SDS polyacrylamide gels and transferred onto nitrocellulose filters. The membranes were incubated overnight at 4° C. with antibodies against PPARγ (Sc-7273 obtained from Santa Cruz Inc.; Santa Cruz, Calif.), ERK1 (Sc-94 obtained from Santa Cruz Inc.; Santa Cruz, Calif.), and phospho-p44/42 MAP kinase (9101S obtained from Cell Signal; Beverly, Mass.), and cyclin D1 (554180 obtained from BD Pharmingen; San Diego, Calif.) in parallel with anti-β-actin antibodies (A2066 obtained from Sigma; St. Louis, Mo.) and washed well before incubating with the appropriate α-mouse or α-rabbit secondary antibody conjugated with horseradish peroxidase (obtained from Amersham Biosciences, UK).

NIH3T3-PPARγ cells = test: Neutral lipid accumulation (Oil Red O) in NIH3T3 cells expressing recombinant PPARγ; format: cell-based, mouse
Experimental: Third, PPARγ is accepted as a master regulator of adipocyte differentiation. […] NIH3T3 cells that stably overexpress retrovirally expressed recombinant PPARγ were obtained from Dr. Ronald Evans (Salk Institute, La Jolla, Calif.). […] NIH3T3 cells stably expressing recombinant PPARγ (obtained from Dr. Ronald Evans of the Jonas Salk Institute; San Diego, Calif.) were maintained in DMEM supplemented with 10% BCS, 100 μg/ml penicillin and 100 μg/ml streptomycin (obtained from GIBCO; Grand Island, N.Y.). The cells were treated for seven days with the indicated compounds and concentrations and stained for neutral lipids with Oil Red O as described by Green and Kehinde (“Sublines of mouse 3T3 cells that accumulate lipid,” Cell, Vol. 1, p. 113-116 (1974)).

2C4: Recombinant humanized HER-2 specific monoclonal antibody that inhibits ligand-induced heterodimerization of ErbB2
Lethal toxicity or significant weight loss [1]: no lethal toxicity or significant weight loss
PPARγ protein by immunoblot in xenograft lysates of combination study (PPARγ1; CWRSA6 xenografts): expressed PPARγ

CCc1cccc2c3c([nH]c12)[C@@](CC)(CC(=O)O)OCC3 [R-etodolac]
Lethal toxicity or weight loss (greater than 10% body weight) ([1]; 200 mg/kg o.g. daily, single agent study): no lethal toxicity or weight loss
Lethal toxicity or significant weight loss [1]: no lethal toxicity or significant weight loss
COX inhibitory activity (cyclooxygenase (COX)): lacks COX inhibitory activity
PPARγ protein in tumors vs vehicle treated control (PPARγ1; CWRSA6 and LuCaP-35 xenografts, two to three weeks of treatment, 200 mg/kg): completely eliminated
PPARγ receptor level in time course experiment (PPARγ1; CWRSA6 xenografts, 24 to 72 hours post treatment): upregulation of the PPARγ receptor in the majority of the animals
PPARγ protein by immunoblot in xenograft lysates of combination study (PPARγ1; CWRSA6 xenografts): complete ablation
CD36 expression as downstream indicator of PPARγ activation [2]: equivalent potency
Tumor growth inhibition relative to control-treated animals [3]: 66%
Transactivation of PPARγ reporter (fold-induction of luciferase expression) (PPARγ; 100 μM, relative to no drug control, 24 hours): 13 fold
PPRE-driven reporter gene expression / PPARγ transactivation (PPARγ): enhances reporter gene expression in a dose dependent manner
mRNA expression of the HER-kinase receptors (HER-kinase receptors): did not alter
Tumor growth inhibition relative to control-treated animals [4]: 46%
Cyclin D1 protein expression ([5]; 18 hours, 200, 400 and 600 μM): downregulation
Cyclin D1 mRNA expression ([5]; 18 hours, 200 and 400 μM): downregulation
Phospho-MAP kinase activation [6]: transient peak
Phosphorylated p44/42 levels ([7]; 24 hours post treatment, 200 mg/kg): sharp increase
Total MAP kinase expression ([7]; time course): No difference
MAP kinase activation, rest of time course ([7]; up to 72 hours): low level of sustained activation
Accumulation of neutral lipids and morphological changes (Oil Red O) (NIH3T3-PPARγ cells; 1 μM, seven days): displayed accumulation of neutral lipids
Lipid uptake (Oil Red O) (NIH3T3-PPARγ cells; 500 μM, seven days): significantly more pronounced
Lipid uptake in NIH3T3 cells transfected with the empty retroviral vector (NIH3T3-PPARγ cells; empty vector control cells, data not shown): did not demonstrate the lipid uptake

CCc1cccc2c3c([nH]c12)[C@](CC)(CC(=O)O)OCC3 [S-etodolac]
PPRE-driven reporter gene expression / PPARγ transactivation (PPARγ): can also transactivate PPARγ but to significantly lower levels

COc1ccc2c(c1)c(CC(=O)O)c(C)n2C(=O)c1ccc(Cl)cc1 [indomethacin]
PPARγ transactivation compared with 100 μM R-etodolac (PPARγ; 10 μM): comparable
